molecular target: AM2 S31 (wild-type serine at position 31 in the M2 protein), influenza virus A/Udorn/72 (Influenza A virus, UniProt P0DOF5); assay: cell-based; conditions: 100 uM; Xenopus oocytes; activity range class; read-out: S31 OOcyte Inhibition at 100 uM (%)
Sequence (P0DOF5 whole entry, looked up): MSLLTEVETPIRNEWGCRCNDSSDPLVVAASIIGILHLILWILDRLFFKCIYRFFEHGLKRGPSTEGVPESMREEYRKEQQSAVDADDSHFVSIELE

`c1csc(-c2ccc(CNC34CC5CC(CC(C5)C3)C4)cc2)c1` [Example 29a, N-(4-(Thiophen-2-yl)benzyl)adamantan-1-amine methanesulfonate] and `c1cc(CNC23CC4CC(CC(C4)C2)C3)cc(-c2cccs2)c1` [Example 34a, N-(3-(thiophen-2-yl)benzyl)adamantan-1-amine] fall in the same range of inhibition at 100 µM: 0 to 30% for the first, 0 to 30% for the second.

`c1cc(CNC23CC4CC(CC(C4)C2)C3)cc(-c2ccco2)c1` [Example 30a, N-(3-(Furan-2-yl)benzyl)adamantan-1-amine] and `c1coc(-c2ccc(CNC34CC5CC(CC(C5)C3)C4)cc2)c1` [Example 31a, N-(4-(Furan-2-yl)benzyl)adamantan-1-amine] fall in the same range of inhibition at 100 µM: 0 to 30% for the first, 0 to 30% for the second.

`Cc1ccc(-c2ccc(CNC34CC5CC(CC(C5)C3)C4)cc2)o1.Cl` [Example 32a, N-(4-(5-Methylfuran-2-yl)benzyl)adamantan-1-amine hydrochloride] and `Cc1noc(C)c1-c1ccc(CNC23CC4CC(CC(C4)C2)C3)cc1` [Example 33a, N-(4-(3,5-Dimethylisoxazol-4-yl)benzyl)adamantan-1-amine] fall in the same range of inhibition at 100 µM: 0 to 30% for the first, 0 to 30% for the second.

Compared with `Oc1cc(OCc2ccccc2)ccc1CNC12CC3CC(CC(C3)C1)C2` [Example 37a, 2-(Adamantan-1-ylaminomethyl)-5-benzyloxy-phenol], `c1ccc2cc(COc3ccc(CNC45CC6CC(CC(C6)C4)C5)cc3)ccc2c1` [Example 38a, N-(4-(naphthalen-2-ylmethoxy)benzyl)adamantan-1-amine] is lower in inhibition at 100 µM: 31 to 95% for the first, 0 to 30% for the second.

`c1cnc2ccc(CNC34CC5CC(CC(C5)C3)C4)cc2c1` [Example 39a, Adamantan-1-yl-quinolin-6-ylmethyl-amine] and `COc1ccc2cc(CNC34CC5CC(CC(C5)C3)C4)ccc2c1` [Example 40a, Adamantan-1-yl-(6-methoxy-naphthalen-2-ylmethyl)-amine] fall in the same range of inhibition at 100 µM: 0 to 30% for the first, 0 to 30% for the second.

same assay, conditions: 100 uM; Xenopus oocytes; numeric value; read-out: S31 OOcyte Inhibition at 100 uM (%)

In the case of `c1cn(-c2ccc(CNC34CC5CC(CC(C5)C3)C4)cc2)cn1` [Example 36a, N-(4-(1H-imidazol-1-yl)benzyl)adamantan-1-amine], the inhibition at 100 µM was 16.1%.

same assay, conditions: Table 1; 100 uM; Xenopus oocytes, pH 5.5, -20 mV; read-out: S31 OOcyte Inhibition at 100 uM (%)

First: c1cc(COc2ccc(CNC34CC5CC(CC(C5)C3)C4)cc2)co1 [Example 22, Adamantan-1-yl-[4-(furan-3-ylmethoxy)-benzyl]-amine]
Second: NC(=O)COc1ccc(CNC23CC4CC(CC(C4)C2)C3)cc1 [Example 39, 2-(4-((Adamantan-1-ylamino)methyl)phenoxy)acetamide]
The inhibition at 100 µM of the first is higher: 31 to 95% for the first, 0 to 30% for the second.

First: CSc1ccc(CNC23CC4CC(CC(C4)C2)C3)cc1 [Example 23, Adamantan-1-yl-(4-methylsulfanyl-benzyl)-amine]
Second: Fc1ccc(CNC23CC4CC(CC(C4)C2)C3)cc1 [Example 27, Adamantan-1-yl-(4-fluoro-benzyl)-amine]
The inhibition at 100 µM of the first is lower: 0 to 30% for the first, 31 to 95% for the second.

First: C[S+]([O-])c1ccc(CNC23CC4CC(CC(C4)C2)C3)cc1 (stereo not shown) [Example 24, Adamantan-1-yl-(4-methanesulfinyl-benzyl)-amine]
Second: CS(=O)(=O)c1ccc(CNC23CC4CC(CC(C4)C2)C3)cc1 [Example 25, Adamantan-1-yl-(4-methanesulfonyl-benzyl)-amine]
The inhibition at 100 µM of the first is lower: 0 to 30% for the first, 31 to 95% for the second.

First: FC(F)(F)Sc1ccc(CNC23CC4CC(CC(C4)C2)C3)cc1 [Example 26, Adamantan-1-yl-(4-trifluoromethylsulfanyl-benzyl)-amine]
Second: CC(=O)Oc1ccc(CNC23CC4CC(CC(C4)C2)C3)cc1 [Example 33, Acetic acid 4-(adamantan-1-ylaminomethyl)-phenyl ester]
The inhibition at 100 µM of the first is lower: 0 to 30% for the first, 31 to 95% for the second.

First: COc1ccccc1CNC12CC3CC(CC(C3)C1)C2 [Example 29, Adamantan-1-yl-(2-methoxy-benzyl)-amine]
Second: O=[N+]([O-])c1ccccc1CNC12CC3CC(CC(C3)C1)C2 [Example 30, Adamantan-1-yl-(2-nitro-benzyl)-amine]
The inhibition at 100 µM of the first is lower: 0 to 30% for the first, 31 to 95% for the second.

Compared with `Oc1cccc(CNC23CC4CC(CC(C4)C2)C3)c1` [Example 31, 3-(Adamantan-1-ylaminomethyl)-phenol], `c1cnn(-c2ccc(CNC34CC5CC(CC(C5)C3)C4)cc2)c1` [Example 35, Adamantan-1-yl-(4-pyrazol-1-yl-benzyl)-amine] is lower in inhibition at 100 µM: 31 to 95% for the first, 0 to 30% for the second.

Compared with `COc1ccc(CN(C)C23CC4CC(CC(C4)C2)C3)cc1` [Example 32, Adamantan-1-yl-(4-methoxy-benzyl)-methyl-amine], `O=C(Oc1ccc(CNC23CC4CC(CC(C4)C2)C3)cc1)C1CC1` [Example 34, Cyclopropanecarboxylic acid 4-(adamantan-1-ylaminomethyl)-phenyl ester] is lower in inhibition at 100 µM: 31 to 95% for the first, 0 to 30% for the second.

`c1cn(-c2ccc(CNC34CC5CC(CC(C5)C3)C4)cc2)cn1` [Example 36, Adamantan-1-yl-(4-imidazol-1-yl-benzyl)-amine] and `c1nc(-c2ccc(CNC34CC5CC(CC(C5)C3)C4)cc2)no1` [Example 40, Adamantan-1-yl-(4-[1,2,4]oxadiazol-3-yl-benzyl)-amine] fall in the same range of inhibition at 100 µM: 0 to 30% for the first, 0 to 30% for the second.

`O=C(Oc1ccc(CNC23CC4CC(CC(C4)C2)C3)cc1)c1cccs1` [Example 37, Thiophene-2-carboxylic acid 4-(adamantan-1-ylaminomethyl)-phenyl ester] and `CN(CCC#N)c1ccc(CNC23CC4CC(CC(C4)C2)C3)cc1` [Example 38, 3-((4-((Adamantan-1-ylamino)methyl)phenyl)(methyl)amino)propanenitrile] fall in the same range of inhibition at 100 µM: 0 to 30% for the first, 0 to 30% for the second.

same assay, conditions: Table 3; 100 uM; Xenopus oocytes, pH 5.5, -20 mV; read-out: S31 OOcyte Inhibition at 100 uM (%)

First: C1COC(c2nc(CNC34CC5CC(CC(C5)C3)C4)no2)C1 (stereo not shown) [Example 21b, N-((5-(tetrahydrofuran-2-yl)-1,2,4-oxadiazol-3-yl)methyl)adamantan-1-amine]
Second: C1CCC(c2nc(CNC34CC5CC(CC(C5)C3)C4)no2)CC1 [Example 24b]
The inhibition at 100 µM of the first is lower: 0 to 30% for the first, 31 to 95% for the second.

`CC(C)Cc1nc(CNC23CC4CC(CC(C4)C2)C3)no1` [Example 22b, N-((5-isobutyl-1,2,4-oxadiazol-3-yl)methyl)adamantan-1-amine] and `COCc1nc(CNC23CC4CC(CC(C4)C2)C3)no1` [Example 23b, N-((5-(methoxymethyl)-1,2,4-oxadiazol-3-yl)methyl)adamantan-1-amine] fall in the same range of inhibition at 100 µM: 0 to 30% for the first, 0 to 30% for the second.

`Cc1noc(C)c1-c1nc(CNC23CC4CC(CC(C4)C2)C3)no1` [Example 25b, N-((5-(3,5-dimethylisoxazol-4-yl)-1,2,4-oxadiazol-3-yl)methyl)adamantan-1-amine] and `Clc1ccccc1-c1nc(CNC23CC4CC(CC(C4)C2)C3)no1` [Example 31b, N-((5-(2-chlorophenyl)-1,2,4-oxadiazol-3-yl)methyl)adamantan-1-amine] fall in the same range of inhibition at 100 µM: 0 to 30% for the first, 0 to 30% for the second.

`CCCc1cc(CNC23CC4CC(CC(C4)C2)C3)no1` [Example 26b, N-((5-propylisoxazol-3-yl)methyl)adamantan-1-amine] and `CC(C)c1cc(CNC23CC4CC(CC(C4)C2)C3)no1` [Example 27b, N-((5-isopropylisoxazol-3-yl)methyl)adamantan-1-amine] fall in the same range of inhibition at 100 µM: 0 to 30% for the first, 0 to 30% for the second.

`COc1ccc(Cc2nc(CNC34CC5CC(CC(C5)C3)C4)no2)cc1OC` [Example 28b, N-((5-(3,4-dimethoxybenzyl)-1,2,4-oxadiazol-3-yl)methyl)adamantan-1-amine] and `COc1ccc(-c2noc(CNC34CC5CC(CC(C5)C3)C4)n2)cc1OC` [Example 35b, N-((3-(3,4-dimethoxyphenyl)-1,2,4-oxadiazol-5-yl)methyl)adamantan-1-amine] fall in the same range of inhibition at 100 µM: 0 to 30% for the first, 0 to 30% for the second.

`CCCc1nc(CNC23CC4CC(CC(C4)C2)C3)no1` [Example 29b, N-((5-propyl-1,2,4-oxadiazol-3-yl)methyl)adamantan-1-amine] and `COc1ccc(-c2nc(CNC34CC5CC(CC(C5)C3)C4)no2)c(OC)c1` [Example 34b, N-((5-(2,4-dimethoxyphenyl)-1,2,4-oxadiazol-3-yl)methyl)adamantan-1-amine] fall in the same range of inhibition at 100 µM: 0 to 30% for the first, 0 to 30% for the second.

`COc1ccccc1-c1noc(CNC23CC4CC(CC(C4)C2)C3)n1` [Example 30b, N-((3-(2-methoxyphenyl)-1,2,4-oxadiazol-5-yl)methyl)adamantan-1-amine] and `COc1cccc(-c2cc(CNC34CC5CC(CC(C5)C3)C4)no2)c1` [Example 39b, N-((5-(3-methoxyphenyl)isoxazol-3-yl)methyl)adamantan-1-amine] fall in the same range of inhibition at 100 µM: 0 to 30% for the first, 0 to 30% for the second.

`c1c(CNC23CC4CC(CC(C4)C2)C3)noc1C1CCCCC1` [Example 32b, N-((5-cyclohexylisoxazol-3-yl)methyl)adamantan-1-amine] and `Fc1cc(F)cc(-c2cc(CNC34CC5CC(CC(C5)C3)C4)no2)c1` [Example 33b, N-((5-(3,5-difluorophenyl)isoxazol-3-yl)methyl)adamantan-1-amine] fall in the same range of inhibition at 100 µM: 0 to 30% for the first, 0 to 30% for the second.

`FC(F)(F)Oc1ccc(-c2cc(CNC34CC5CC(CC(C5)C3)C4)no2)cc1` [Example 36b, N-((5-(4-(trifluoromethoxy)phenyl)isoxazol-3-yl)methyl)adamantan-1-amine] and `CSc1ccc(-c2cc(CNC34CC5CC(CC(C5)C3)C4)no2)cc1` [Example 37b, N-((5-(4-(methylthio)phenyl)isoxazol-3-yl)methyl)adamantan-1-amine] fall in the same range of inhibition at 100 µM: 0 to 30% for the first, 0 to 30% for the second.

Molecule `Fc1cccc(F)c1-c1cc(CNC23CC4CC(CC(C4)C2)C3)no1` [Example 38b, N-((5-(2,6-difluorophenyl)isoxazol-3-yl)methyl)adamantan-1-amine] has an inhibition at 100 µM of 0 to 30%.

same assay, conditions: pH 5.5, read-out: S31 OOcyte Inhibition at 100 uM (%)

`Oc1ccccc1CNC12CC3CC(CC(C3)C1)C2` [Example 28, 2-(Adamantan-1-ylaminomethyl)-phenol] was tested, and the inhibition at 100 µM was 31 to 95%.

— patent US9884832B2 (priority 2011, dated 2018)
